Results as given in patent publication US8791163B2 (McGill University, priority 2006, dated 2014).

Legend:
[1] = target: T1, cloned human MT2 receptors (Homo sapiens, UniProt P49286); assay: [35S]GTPγS binding assay, NIH3T3 cells expressing human MT2; format: biochemical; settings: for MT2 IAr ± SEM (relative intrinsic activity): maximal net effect relative to MLT; as to MT2 Activity: key: A = agonist; PA = partial agonist; ANT = antagonist; IA = Inverse agonist
T1 construct: expressed in transfected cells
T1 sequence (P49286 1-362): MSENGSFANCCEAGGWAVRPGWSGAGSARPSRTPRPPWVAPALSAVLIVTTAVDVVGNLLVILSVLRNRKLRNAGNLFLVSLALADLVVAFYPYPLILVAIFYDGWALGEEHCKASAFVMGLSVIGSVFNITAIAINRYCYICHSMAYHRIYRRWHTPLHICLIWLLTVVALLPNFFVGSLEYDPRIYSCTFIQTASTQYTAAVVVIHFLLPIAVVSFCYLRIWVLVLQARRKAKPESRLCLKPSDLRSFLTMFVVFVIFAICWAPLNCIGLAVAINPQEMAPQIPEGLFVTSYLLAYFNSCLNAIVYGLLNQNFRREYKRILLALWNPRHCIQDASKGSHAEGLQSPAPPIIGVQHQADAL
Procedure: (§1) Membranes were incubated for 90 min at 37° C. in binding buffer (Tris/HCl 50 mM, pH 7.4). The final membrane concentration was 5-10 μg of protein per tube. […] The pKi values are the mean of at least three independent determinations performed in duplicate. To define the functional activity of the compounds of Formula (I) at the MT1 and MT2 receptor subtypes, [^35S]GTPγS binding assays in NIH3T3 cells expressing human-cloned MT1 or MT2 receptors were performed. The amount of bound [^35S]GTPγS is proportional to the level of analogue-induced G-protein activation and is related to the intrinsic activity of the compound (i.e. a compound of Formula (I)) under study. […] Nonspecific binding was assessed using non-radiolabeled GTPγS (10 μM). […] Basal stimulation is the amount of [^35S]GTPγS specifically bound in the absence of the compounds of Formula (I) and was taken as 100%. […] All of the measurements were performed in triplicate.

[2] = target: T1, cloned human MT2 receptors; assay: 2-[125I]iodomelatonin competition binding, human MT2 in NIH3T3 cells; settings: human MT2 in NIH3T3 cells, calculated from IC50 by Cheng-Prusoff, mean of at least three determinations
Procedure: as §1

[3] = target: T2, cloned human MT1 receptors (Homo sapiens, UniProt P48039); assay: [35S]GTPγS binding assay, NIH3T3 cells expressing human MT1; format: biochemical; settings: for MT1 IAr ± SEM (relative intrinsic activity): maximal net effect relative to MLT; as to MT1 Activity: key: A = agonist; PA = partial agonist; ANT = antagonist; IA = Inverse agonist
T2 construct: expressed in transfected cells
Procedure: as §1

[4] = target: T2, cloned human MT1 receptors; assay: 2-[125I]iodomelatonin competition binding, human MT1 in NIH3T3 cells; settings: calculated from IC50 by Cheng-Prusoff, mean of at least three determinations
Procedure: as §1

T2 sequence (P48039 whole entry): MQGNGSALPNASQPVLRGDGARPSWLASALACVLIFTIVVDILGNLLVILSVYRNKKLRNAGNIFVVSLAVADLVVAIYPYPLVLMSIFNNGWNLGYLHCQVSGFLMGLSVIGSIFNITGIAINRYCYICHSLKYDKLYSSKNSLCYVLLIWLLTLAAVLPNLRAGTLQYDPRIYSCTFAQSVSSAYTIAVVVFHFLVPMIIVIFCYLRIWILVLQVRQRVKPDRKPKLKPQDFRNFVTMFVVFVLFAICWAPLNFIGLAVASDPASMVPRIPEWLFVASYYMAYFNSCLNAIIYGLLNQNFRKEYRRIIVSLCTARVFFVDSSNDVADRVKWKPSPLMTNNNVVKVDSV

| MT2 IAr ± SEM (relative intrinsic activity) [1] | MT2 pKi [2] | MT1 IAr ± SEM (relative intrinsic activity) [3] | Ki ([4]; read-out: MT1 pKi (converted)) [nM] | MT1 pKi [4] | MT2 Activity [1] | Ki ([2]; read-out: MT2 pKi (converted)) [nM] | Compound | MT1 Activity [3] |
| --- | --- | --- | --- | --- | --- | --- | --- | --- |
| 1.07 ± 0.06 | 8.70 ± 0.26 | 0.87 ± 0.05 | – | 9.08 ± 0.04 | – | – | COc1cccc(N(C)CCCNC(C)=O)c1 [5m, N-{3-[(3-Methoxyphenyl)-methylamino]propyl}acetamide] | – |
| 0.15 ± 0.01 | 10.56 ± 0.10 | 0.59 ± 0.05 | – | 7.72 ± 0.13 | ANT | – | COc1cccc(N(CCNC(C)=O)c2cccc(OC)c2)c1 [5c, N-[2-(bis-3-methoxyphenylamino)ethyl]acetamide] | – |
| 0.31 ± 0.02 | 9.12 ± 0.05 | 0.92 ± 0.06 | – | 7.30 ± 0.10 | – | – | COc1cccc(N(CCNC(C)=O)Cc2ccccc2)c1 [5k, N-{2-[(3-Methoxyphenyl)-benzylamino]ethyl}acetamide] | – |
| 0.94 ± 0.03 | – | 0.84 ± 0.01 | – | 8.28 ± 0.01 | – | 7.59 | COc1cccc(NCCNC(C)=O)c1 [5l, N-[2{(3-Methoxyphenyl)-amino]ethyl}acetamide] | – |

The next lines start with the compound.

| Compound | MT2 IAr ± SEM (relative intrinsic activity) [1] | MT2 pKi [2] | MT1 IAr ± SEM (relative intrinsic activity) [3] | Ki ([4]; read-out: MT1 pKi (converted)) [nM] | MT1 pKi [4] | MT2 Activity [1] | Ki ([2]; read-out: MT2 pKi (converted)) [nM] | MT1 Activity [3] |
| --- | --- | --- | --- | --- | --- | --- | --- | --- |
| COc1cccc(N(CCNC(=O)C2CCC2)c2ccccc2)c1 [5o, N-{2-[(3-Methoxyphenyl)-phenylamino]ethyl}cyclobutancarboxamide] | 0.29 ± 0.01 | 8.43 ± 0.40 | 0.22 ± 0.01 | 331 | – | – | – | – |
| COc1cccc(N(CCNC(C)=O)c2ccc3ccccc3c2)c1 [5g, N-{2-[(3-Methoxyphenyl)-β-naphthylamino]ethyl}acetamide] | −0.20 ± 0.03 | 9.95 ± 0.64 | 0.17 ± 0.03 | – | 6.88 ± 0.07 | – | – | ANT |
| COc1ccc(N(CCNC(C)=O)c2cccc(OC)c2)cc1 [5d, N-{2-[(4-Methoxyphenyl)-3-methoxyphenylamino]ethyl}acetamide] | 0.03 ± 0.01 | 9.06 ± 0.10 | 0.06 ± 0.03 | – | 7.00 ± 0.01 | ANT | – | ANT |
| COc1cccc(N(CCN(C)C(C)=O)c2ccccc2)c1 [compound 6] | −0.01 ± 0.03 | 7.28 ± 0.06 | −0.01 ± 0.03 | – | 5.89 ± 0.07 | ANT | – | ANT |
| CC(=O)NCCN(c1ccccc1)c1cccc(OCCCCc2ccccc2)c1 [5i] | 0.01 ± 0.01 | 6.48 ± 0.29 | 0.12 ± 0.02 | – | 7.45 ± 0.01 | ANT | – | ANT |
| CC(=O)NCCN(c1ccccc1)c1cccc(Br)c1 [5f, N-{2-[(3-bromophenyl)-phenylamino]ethyl}acetamide] | 0.36 ± 0.01 | 9.70 ± 0.43 | 0.43 ± 0.04 | – | 7.77 ± 0.19 | – | – | – |
